Measured values as given in the NIST ThermoML archive (doi:10.1016/j.jct.2003.09.010).
± gives the expanded uncertainty stated by the source.

Assay: mn = molality of the nth substance listed, in mol/kg
Conditions: 298.15 K, 101 kPa, Liquid

Compound: CCCCCCCCCCCCCCCC[N+](C)(C)C.[Br-] [N,N,N-trimethyl-1-hexadecanaminium bromide] + O
- mass density (m1 = 1): 1004.43 ± 0.46 kg/m3

Compound: CCCCCCCCCCCCOS(=O)(=O)[O-].[Na+] [sodium dodecyl sulfate] + O
- mass density (m1 = 0.05): 999.133 ± 0.27 kg/m3 [middle of 5 runs]
- mass density (m1 = 0.5): 1014.57 ± 0.3 kg/m3 [middle of 5 runs]
- mass density (m1 = 1): 1027.43 ± 0.33 kg/m3 [middle of 7 runs]
